According to patent publication US5124455A, “Oxime-carbamates and oxime-carbonates as bronchodilators and anti-inflammatory agents” (American Home Products Corporation, priority 1990, dated 1992):

These molecules were tested on PDE IV (assay: inhibition of PDE IV isolated from canine trachea (cAMP metabolism)). Settings: PDE IV from canine tracheal muscle; 1 μM 3H-cAMP; 10 μM CI-930; 30° C., pH 7.8; reduction expressed as percentage of that by 10 μM rolipram.
Format: biochemical
Protocol: The following assay is employed to assess the ability of the compounds of the invention to inhibit PDE IV.
A solution containing PDE IV is prepared from canine tracheal muscle as follows:
The dog is euthanized with an overdose of beuthanasia while under anesthesia induced by a 33 mg/kg IV bolus of Nembutal. The trachealis muscle is removed, cleaned of connective tissue, and minced thoroughly. Three to four grams of tissue is then homogenized in Tris-HCl buffer (pH 7.8) using a Polytron. The homogenate is then centrifuged at 25,000×g (4° C.) for 30 minutes. The supernatant is decanted and filtered through four layers of gauze, and applied to a 40 cm×2 cm DEAE-Sepharose column that is equilibrated with Tris-HCl buffer (pH 7.8). The column is then washed with an additional 240 mL of buffer to remove unbound proteins. PDE is eluted using 450 mL of Tris-HCl buffer containing a linear gradient of 0.0-1.0M Na-acetate (80 mL/hr), and 7.5 mL fractions are collected. Each fraction is assayed for cAMP- and cGMP-metabolizing PDE activity. Fractions eluting at approximately 0.6M Na-acetate, and containing cAMP but not cGMP metabolic activity are pooled and used as a PDE stock solution for assaying PDE IV inhibitory activity.
CI-930 is included as an inhibitor of the cyclic GMP-sensitive, cyclic AMP-selectivePDE (PDE III) that is also present in the PDE IV stock solution when prepared as described above.
`COc1ccc(/C(C)=N/OC(N)=O)cc1OC1CC2CCC1C2` (stereo not shown) [Example 13, 1-[3-(bicyclo[2.2.1]hept-2-yloxy)-4-methoxyphenyl]ethanone (E)-O-(aminocarbonyl)oxime] gave an IC50 of 67 nM. `COc1ccc(/C(C)=N/OC(N)=O)cc1OCCCOc1ccccc1` [Example 3, 1-[4-Methoxy-3-(3-phenoxypropoxy)phenyl]ethanone (E)-O-(aminocarbonyl)oxime] showed an IC50 of 410 nM. `CNC(=O)O/N=C(\C)c1ccc(OC)c(OC2CCCC2)c1` [Example 7, 1-[3-(Cyclopentyloxy)-4-methoxyphenyl]ethanone (E)-O-[(methylamino)carbonyl]oxime] showed an IC50 of 120 nM. `CCCCOc1cc(/C(C)=N/OC(=O)NC)ccc1OC` [Example 8, 1-(3-butoxy-4-methoxyphenyl)ethanone (E)-O-[(methylamino)carbonyl]oxime] was tested, and the IC50 was 200 nM. `COc1ccc(/C(Cc2ccccc2)=N/OC(N)=O)cc1OC1CCCC1` [Example 4, 1-(3-Cyclopentyloxy-4-methoxyphenyl)-2-phenylethanone (E)-O-(aminocarbonyl)oxime] was tested, and the IC50 was 47 nM. `CCCCOc1cc(/C(C)=N/OC(=O)Oc2ccccc2)ccc1OC` [Example 12, 1-(3-butoxy-4-methoxyphenyl)ethanone (E)-O-(phenoxycarbonyl)oxime] showed an IC50 of 380 nM. Molecule `CCCCOc1cc(/C(C)=N/OC(N)=O)ccc1OC` [Example 2, 1-[3-(Butoxy)-4-methoxyphenyl]ethanone (E)-O-(aminocarbonyl)oxime] has an IC50 of 90 nM. `CCCCOc1cc(/C(C)=N/OC(=O)Nc2ccccc2)ccc1OC` [Example 9, 1-(3-butoxy-4-methoxyphenyl)ethanone (E)-O-[(phenylamino)carbonyl]oxime] showed an IC50 of 1500 nM. Molecule `COc1ccc(/C(C)=N/OC(N)=O)cc1OC1CCCC1` [Example 1, 1-[3-(Cyclopentyloxy)-4-methoxyphenyl]ethanone (E)-O-(aminocarbonyl)oxime] has an IC50 of 48 nM. With `COc1ccc(/C(CC(C)C)=N/OC(N)=O)cc1OC1CCCC1` [Example 6, 1-[3-(Cyclopentyloxy)-4-methoxyphenyl]-3-methylbutanone (E)-O-(aminocarbonyl)oxime] the IC50 was 130 nM. Molecule `COC(=O)O/N=C(\C)c1ccc(OC)c(OC2CCCC2)c1` [Example 10, 1-[3-(cyclopentyloxy)-4-methoxyphenyl]ethanone (E)-O-(methoxycarbonyl)oxime] has an IC50 of 180 nM. In the case of `CCCCOc1cc(/C(C)=N/OC(=O)OC)ccc1OC` [Example 11, 1-(3-butoxy-4-methoxyphenyl)ethanone (E)-O-(methoxycarbonyl)oxime], the IC50 is reported as 240 nM. For `COc1ccc(/C(CCc2ccccc2)=N/OC(N)=O)cc1OC1CCCC1` [Example 5, 1-(3-Cyclopentyloxy-4-methoxyphenyl)-3-phenylpropanone (E)-O-(aminocarbonyl)oxime], the IC50 was 25 nM.
